From publication PMC3521580 (Journal of medicinal chemistry, 2011)
Where two headings read alike, the source gives them in different places. Non-standard residues stand in square brackets, D forms with d. Residues, ends and D or L forms follow the SMILES beside them. *: point of attachment. X1 = CC(=O)NCCCC(CCCNC(C)=O)(NC(=O)CNC(=O)Cn1cc(CCC(=O)*)nn1)C(=O)NCCC(N)=O

What was measured:
[1] = molecular target: T1, human MC4R (Homo sapiens, UniProt P32245); assay: Time resolved fluorescence competition binding assay against Eu-NDP-α-MSH; settings: for Relative potency to Ac-MSH(4): Table 2
T1 sequence (P32245 whole entry): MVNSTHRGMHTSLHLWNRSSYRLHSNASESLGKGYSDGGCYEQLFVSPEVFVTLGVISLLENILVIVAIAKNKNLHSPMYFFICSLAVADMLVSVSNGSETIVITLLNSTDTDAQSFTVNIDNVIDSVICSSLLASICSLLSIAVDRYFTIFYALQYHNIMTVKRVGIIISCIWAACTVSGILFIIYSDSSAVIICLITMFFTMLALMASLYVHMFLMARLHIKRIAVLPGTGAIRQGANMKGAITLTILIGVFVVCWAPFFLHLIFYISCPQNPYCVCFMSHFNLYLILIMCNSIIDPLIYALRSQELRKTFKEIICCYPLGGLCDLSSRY

[2] = molecular target: T1, human MC4R; assay: cAMP biological response chemiluminescent immunoassay in Hek293/hMC4R cells; assay type: cell-based; settings: hMC4R cells, result in words

SMILES	IC50 [1] [nM]	IC50 ([1]; IC50, MC4R binding affinity as quoted in the text) [nM]	Relative potency to Ac-MSH(4) ([1]; ratio of IC50 values, fold)	cAMP production, agonist activity at MC4R [2]	Relative potency to NB397 ([1]; Table 3, ratio of IC50 values, fold)
CC(=O)N[C@@H](CCCCNC(=O)CCc1cn(CC(=O)NCCCC(CCCNC(=O)Cn2cc(CCC(=O)NCCCC[C@H](NC(C)=O)C(=O)N[C@@H](Cc3c[nH]cn3)C(=O)N[C@H](Cc3ccccc3)C(=O)N[C@@H](CCCNC(=N)N)C(=O)N[C@@H](Cc3c[nH]c4ccccc34)C(N)=O)nn2)(NC(=O)CNC(=O)Cn2cc(CCC(=O)NCCCC[C@H](NC(C)=O)C(=O)N[C@@H](Cc3c[nH]cn3)C(=O)N[C@H](Cc3ccccc3)C(=O)N[C@@H](CCCNC(=N)N)C(=O)N[C@@H](Cc3c[nH]c4ccccc34)C(N)=O)nn2)C(=O)NCCC(N)=O)nn1)C(=O)N[C@@H](Cc1c[nH]cn1)C(=O)N[C@H](Cc1ccccc1)C(=O)N[C@@H](CCCNC(=N)N)C(=O)N[C@@H](Cc1c[nH]c2ccccc12)C(N)=O (stereo partly shown) [NB297]	71 ± 5.3	~72	64	–	–
CC(=O)N[C@@H](CCCCNC(=O)CCc1cn(CC(=O)NCC(=O)N2CCC[C@H]2C(=O)NCC(=O)NCCCC(CCCNC(=O)CNC(=O)[C@@H]2CCCN2C(=O)CNC(=O)Cn2cc(CCC(=O)NCCCC[C@H](NC(C)=O)C(=O)N[C@@H](Cc3c[nH]cn3)C(=O)N[C@H](Cc3ccccc3)C(=O)N[C@@H](CCCNC(=N)N)C(=O)N[C@@H](Cc3c[nH]c4ccccc34)C(N)=O)nn2)(NC(=O)CNC(=O)CNC(=O)[C@@H]2CCCN2C(=O)CNC(=O)Cn2cc(CCC(=O)NCCCC[C@H](NC(C)=O)C(=O)N[C@@H](Cc3c[nH]cn3)C(=O)N[C@H](Cc3ccccc3)C(=O)N[C@@H](CCCNC(=N)N)C(=O)N[C@@H](Cc3c[nH]c4ccccc34)C(N)=O)nn2)C(=O)NCCC(N)=O)nn1)C(=O)N[C@@H](Cc1c[nH]cn1)C(=O)N[C@H](Cc1ccccc1)C(=O)N[C@@H](CCCNC(=N)N)C(=O)N[C@@H](Cc1c[nH]c2ccccc12)C(N)=O (stereo partly shown) [NB298]	220 ± 59	–	21	–	–
CC(=O)N[C@@H](CCCCNC(=O)CCc1cn(CC(=O)NCC(=O)N2CCC[C@H]2C(=O)NCC(=O)N2CCC[C@H]2C(=O)NCC(=O)NCCCC(CCCNC(=O)CNC(=O)[C@@H]2CCCN2C(=O)CNC(=O)[C@@H]2CCCN2C(=O)CNC(=O)Cn2cc(CCC(=O)NCCCC[C@H](NC(C)=O)C(=O)N[C@@H](Cc3c[nH]cn3)C(=O)N[C@H](Cc3ccccc3)C(=O)N[C@@H](CCCNC(=N)N)C(=O)N[C@@H](Cc3c[nH]c4ccccc34)C(N)=O)nn2)(NC(=O)CNC(=O)CNC(=O)[C@@H]2CCCN2C(=O)CNC(=O)[C@@H]2CCCN2C(=O)CNC(=O)Cn2cc(CCC(=O)NCCCC[C@H](NC(C)=O)C(=O)N[C@@H](Cc3c[nH]cn3)C(=O)N[C@H](Cc3ccccc3)C(=O)N[C@@H](CCCNC(=N)N)C(=O)N[C@@H](Cc3c[nH]c4ccccc34)C(N)=O)nn2)C(=O)NCCC(N)=O)nn1)C(=O)N[C@@H](Cc1c[nH]cn1)C(=O)N[C@H](Cc1ccccc1)C(=O)N[C@@H](CCCNC(=N)N)C(=O)N[C@@H](Cc1c[nH]c2ccccc12)C(N)=O (stereo partly shown) [NB299]	410 ± 70	–	11	–	–
CC(=O)NCCCC(CCCNC(C)=O)(NC(=O)CNC(=O)Cn1cc(CCC(=O)NCCCC[C@H](NC(C)=O)C(=O)N[C@@H](Cc2c[nH]cn2)C(=O)N[C@H](Cc2ccccc2)C(=O)N[C@@H](CCCNC(=N)N)C(=O)N[C@@H](Cc2c[nH]c3ccccc23)C(N)=O)nn1)C(=O)NCCC(N)=O [NB397] (Ac-K(X1)H[dF]RW-NH2; N-terminus assumed)	–	–	–	agonists	–
CC(=O)NCC(=O)NC(CCCNC(=O)Cn1cc(CCC(=O)NCCCC[C@H](NC(C)=O)C(=O)N[C@@H](Cc2c[nH]cn2)C(=O)N[C@H](Cc2ccccc2)C(=O)N[C@@H](CCCNC(=N)N)C(=O)N[C@@H](Cc2c[nH]c3ccccc23)C(N)=O)nn1)(CCCNC(=O)Cn1cc(CCC(=O)NCCCC[C@H](NC(C)=O)C(=O)N[C@@H](Cc2c[nH]cn2)C(=O)N[C@H](Cc2ccccc2)C(=O)N[C@@H](CCCNC(=N)N)C(=O)N[C@@H](Cc2c[nH]c3ccccc23)C(N)=O)nn1)C(=O)NCCC(N)=O (stereo partly shown) [NB399]	–	–	–	agonists	16

Second part, led by results:

IC50 [1] [nM]	IC50 ([1]; IC50, MC4R binding affinity as quoted in the text) [nM]	Relative potency to Ac-MSH(4) ([1]; ratio of IC50 values, fold)	SMILES	cAMP production, agonist activity at MC4R [2]	Relative potency to NB397 ([1]; Table 3, ratio of IC50 values, fold)
620 ± 51	–	7	CC(=O)N[C@@H](CCCCNC(=O)CCc1cn(CC(=O)NCC(=O)N2CCC[C@H]2C(=O)NCC(=O)N2CCC[C@H]2C(=O)NCC(=O)N2CCC[C@H]2C(=O)NCC(=O)NCCCC(CCCNC(=O)CNC(=O)[C@@H]2CCCN2C(=O)CNC(=O)[C@@H]2CCCN2C(=O)CNC(=O)[C@@H]2CCCN2C(=O)CNC(=O)Cn2cc(CCC(=O)NCCCC[C@H](NC(C)=O)C(=O)N[C@@H](Cc3c[nH]cn3)C(=O)N[C@H](Cc3ccccc3)C(=O)N[C@@H](CCCNC(=N)N)C(=O)N[C@@H](Cc3c[nH]c4ccccc34)C(N)=O)nn2)(NC(=O)CNC(=O)CNC(=O)[C@@H]2CCCN2C(=O)CNC(=O)[C@@H]2CCCN2C(=O)CNC(=O)[C@@H]2CCCN2C(=O)CNC(=O)Cn2cc(CCC(=O)NCCCC[C@H](NC(C)=O)C(=O)N[C@@H](Cc3c[nH]cn3)C(=O)N[C@H](Cc3ccccc3)C(=O)N[C@@H](CCCNC(=N)N)C(=O)N[C@@H](Cc3c[nH]c4ccccc34)C(N)=O)nn2)C(=O)NCCC(N)=O)nn1)C(=O)N[C@@H](Cc1c[nH]cn1)C(=O)N[C@H](Cc1ccccc1)C(=O)N[C@@H](CCCNC(=N)N)C(=O)N[C@@H](Cc1c[nH]c2ccccc12)C(N)=O (stereo partly shown) [NB300]	–	–
88 ± 12	–	52	CC(=O)N[C@@H](CCCCNC(=O)CCc1cn(CC(=O)NCCC(=O)NCCCC(CCCNC(=O)CCNC(=O)Cn2cc(CCC(=O)NCCCC[C@H](NC(C)=O)C(=O)N[C@@H](Cc3c[nH]cn3)C(=O)N[C@H](Cc3ccccc3)C(=O)N[C@@H](CCCNC(=N)N)C(=O)N[C@@H](Cc3c[nH]c4ccccc34)C(N)=O)nn2)(NC(=O)CNC(=O)CCNC(=O)Cn2cc(CCC(=O)NCCCC[C@H](NC(C)=O)C(=O)N[C@@H](Cc3c[nH]cn3)C(=O)N[C@H](Cc3ccccc3)C(=O)N[C@@H](CCCNC(=N)N)C(=O)N[C@@H](Cc3c[nH]c4ccccc34)C(N)=O)nn2)C(=O)NCCC(N)=O)nn1)C(=O)N[C@@H](Cc1c[nH]cn1)C(=O)N[C@H](Cc1ccccc1)C(=O)N[C@@H](CCCNC(=N)N)C(=O)N[C@@H](Cc1c[nH]c2ccccc12)C(N)=O (stereo partly shown) [NB301]	–	–
120 ± 10	–	38	CC(=O)N[C@@H](CCCCNC(=O)CCc1cn(CC(=O)NCCC(=O)NCCC(=O)NCCCC(CCCNC(=O)CCNC(=O)CCNC(=O)Cn2cc(CCC(=O)NCCCC[C@H](NC(C)=O)C(=O)N[C@@H](Cc3c[nH]cn3)C(=O)N[C@H](Cc3ccccc3)C(=O)N[C@@H](CCCNC(=N)N)C(=O)N[C@@H](Cc3c[nH]c4ccccc34)C(N)=O)nn2)(NC(=O)CNC(=O)CCNC(=O)CCNC(=O)Cn2cc(CCC(=O)NCCCC[C@H](NC(C)=O)C(=O)N[C@@H](Cc3c[nH]cn3)C(=O)N[C@H](Cc3ccccc3)C(=O)N[C@@H](CCCNC(=N)N)C(=O)N[C@@H](Cc3c[nH]c4ccccc34)C(N)=O)nn2)C(=O)NCCC(N)=O)nn1)C(=O)N[C@@H](Cc1c[nH]cn1)C(=O)N[C@H](Cc1ccccc1)C(=O)N[C@@H](CCCNC(=N)N)C(=O)N[C@@H](Cc1c[nH]c2ccccc12)C(N)=O (stereo partly shown) [NB302]	–	–
